Where “and” joins values, the source holds several entries; their conditions need not be identical. Equal values may be shown once.
How the values were obtained:
Format in all cases: in vivo, human
[1] = tested on: patients with long-standing RA who had inadequate responses to MTX; experiment: Study 1 (adalimumab + MTX vs placebo + MTX, 12-month RCT plus OLE): radiographic progression (TSS, JE, JSN)
Procedure: The study design included a 12 month, double blind, randomized, placebo-controlled trial.
(§1) Patients were grouped into three cohorts based on baseline CRP concentrations: low (<1 mg/dL); intermediate (1-4 mg/dL); and high (>4 mg/dL). Analyses were further conducted in two categories of patients according to their change in CRP concentrations at Week 12: those with a ≧20% decrease in CRP from baseline; or those with a <20% decrease in CRP from baseline. The following efficacy and radiographic measures were analyzed at Week 52 in the three baseline CRP categories and in the two Week 12 change in CRP categories: DAS28, ACR 20/50/70, Health assessment questionnaire (HAQ), and Total Sharp score (TSS).
(§2) Two readers assessed X-rays performed at baseline (start of RCT), 1 year (end of RCT), and 3 years (post 2 years OLE). Changes from baseline in Total Sharp Score (TSS), Joint Erosions (JE), and Joint Space Narrowing (JSN) were calculated. ACR 20, 50, and 70 response rates, as well as TJC and SJC, were also measured.

[2] = tested on: patients with long-standing RA who had inadequate responses to MTX; experiment: Study 1: ACR20/50/70 response
Procedure: as §1, §2

[3] = tested on: MTX-naïve adult patients with active, early RA (<3 years); experiment: Study J: clinical remission by DAS28<2.6
Procedure: Clinical remission, defined as DAS28<2.6, is described below in Table 25.
Secondary endpoints included DAS28<2.6 at year 1 and Major Clinical Response (MCR=ACR70 response for ≧6 continuous months during a 2-year period).
At 1 and 2 years, the American College of Rheumatology (ACR) responses (ACR20, ACR50, and ACR70), the Disease Activity Score 28 (DAS28), and the change (Δ) in Total Sharp Score (TSS) were determined for all patients. Results were analyzed for the intention-to-treat (ITT) population using imputation for missing data. Clinical remission was defined as DAS28<2.6. The mean ΔTSS values at 1 year and 2 years (N=791) were determined for patients in each ACR response category (ACR20/50/70) and for patients with DAS28<2.6

[4] = tested on: MTX-naïve adult patients with active, early RA (<3 years); experiment: Study J: individual clinical remission criteria (TJC=0, SJC=0, HAQ=0, morning stiffness=0)
Procedure: A total of 799 patients were enrolled. Baseline demographics and clinical characteristics of the patients enrolled in this study are described in Example 7. Baseline demographics and clinical characteristics were similar among the 3 arms, i.e., ada+mtx, ada alone, or mtx alone. […] After 1 and 2 years of therapy, the percentages of patients with ACR90 responses, TJC=0, SJC=0, HAQ=0, morning stiffness=0 minutes, and normal CRP were determined. Data are from the intention-to-treat (ITT) population with imputation used for missing values. Results were compared with the percentages of patients who achieved DAS28<2.6 or a Major Clinical Response (MCR).

[5] = week 52, baseline CRP 1-4 mg/dL
[6] = 3 years, initially randomized to 40 mg eow

## CN(Cc1cnc2nc(N)nc(N)c2n1)c1ccc(C(=O)N[C@@H](CCC(=O)O)C(=O)O)cc1 [mtx alone, methotrexate]
[1]; [5]
  Erosions mean change: 1.7
[1]; week 52, baseline CRP 1-4 mg/dL, listed as MTX
  TSS mean change: 3.0
[1]; week 52, baseline CRP 1-4 mg/dL, listed as Mtx
  TSS mean change: 3.25 (n = 54)
[1]; week 52, baseline CRP <1 mg/dL
  Erosions mean change: 1.5
[1]; week 52, baseline CRP <1 mg/dL, listed as MTX
  TSS mean change: 2.1
[1]; week 52, baseline CRP <1 mg/dL, listed as Mtx
  TSS mean change: 1.8 (n = 71)
[1]; week 52, baseline CRP >4 mg/dL
  Erosions mean change: 2.1
[1]; week 52, baseline CRP >4 mg/dL, listed as MTX
  TSS mean change: 4.5
[1]; week 52, baseline CRP >4 mg/dL, listed as Mtx
  TSS mean change: 4.23 (n = 15)
[2]; [5]
  ACR20: 36 % responders
  ACR50: 18 % responders
  ACR70: 9 % responders
[2]; week 52, baseline CRP <1 mg/dL
  ACR20: 30 % responders
  ACR50: 13 % responders
  ACR70: 6 % responders
[2]; week 52, baseline CRP >4 mg/dL
  ACR20: 47 % responders
  ACR50: 0 % responders
  ACR70: 0 % responders
[3]; week 52 (1 year)
  clinical remission, DAS28 < 2.6: 21 % of patients
[3]; week 104 (2 years)
  clinical remission, DAS28 < 2.6: 25 % of patients
[4]; 1 year
  HAQ = 0: 19 % patients
  Morning Stiffness = 0: 31 % patients
  SJC = 0: 17 % patients
  TJC = 0: 14 % patients
[4]; 2 years
  AM (morning) stiffness = 0: 30 % of patients
  HAQ = 0: 19 % of patients
  SJC = 0: 19 % of patients
  TJC = 0: 21 % of patients

## adalimumab: human anti-TNF mAb (HUMIRA, Abbott Laboratories), described in U.S. Pat. No. 6,090,382 as D2E7
[1]; 3 years
  patients with radiographic improvement (change <−0.5 units), total sharp score: 28%
  patients with radiographic improvement, joint erosion score: 29%
  patients with radiographic improvement, joint space narrowing score: 20%
[1]; [6]
  patients with no radiographic progression, joint erosion score: 71%
  patients with no radiographic progression, joint space narrowing score: 73%
  patients with no radiographic progression, total sharp score: 62%
[2]; month 12
  ACR20: 69%
  ACR50: 48%
  ACR70: 26%
[2]; month 24
  ACR20: 63%
  ACR50: 43%
  ACR70: 28%
[2]; month 36
  ACR20: 58%
  ACR50: 42%
  ACR70: 24% and 23%
[3]; week 52 (1 year)
  clinical remission, DAS28 < 2.6: 23 % of patients
[3]; week 104 (2 years)
  clinical remission, DAS28 < 2.6: 25 % of patients
[4]; 1 year
  HAQ = 0: 17 % patients
  Morning Stiffness = 0: 32 % patients
  SJC = 0: 16 % patients
  TJC = 0: 18 % patients
[4]; 2 years
  AM (morning) stiffness = 0: 30 % of patients
  HAQ = 0: 19 % of patients
  SJC = 0: 19 % of patients
  TJC = 0: 15 % of patients
